# Test results from patent publication US20060211673A1, “Modulation of neurodegenerative diseases through the estrogen receptor” (ALSGEN, LLC, priority 2005, published 2006).
# How the values were obtained:
# SOD-1 protein = test: SOD-1 ELISA on lysates of HeLa cells after 72 hours of incubation with drug; assay type: cell-based, human
# Experimental: Briefly, cells were maintained in Dulbecco's Minimal Essential Medium, with high glucose, supplemented with glutamine, 4 mM, certified fetal bovine serum, 10%, and penicillin, streptomycin, and nystatin (all from Invitrogen). Incubation conditions were 37 degrees and 99% relative humidity, with CO2 at 5%. Cultures were passaged when they reached 90% confluence. For pharmacological experiments, cells were plated into sterile tissue culture treated 96 well plates at a density of 3,500 cells/well in 150 μl medium. After plating and 6 hours for attachment, drugs were added to the medium in a concentration of 10 μM. Following 72 hours of incubation with the drugs, the cells were photographed at 100× using an inverted microscope and digital camera, so that cytotoxicity could be evaluated. After photodocumentation, the medium was removed and the cells were washed once with phosphate buffered saline, and then 50 μl molecular biology grade water containing a protease inhibitor cocktail was added. After 10 min incubation, the plates were placed in −80 degrees to induce complete lysis. Plates were then thawed and 25 μl was transferred from each well into a maxsorp ELISA plate coated with anti-human SOD-1 antibody, which contained 75 μl phosphate buffered saline. A second antibody pair (a polyclonal anti-SOD-1/HRP conjugated goat anti-rabbit) was then added to the well, and incubation was conducted for 1 hour at room temperature. At the conclusion of the incubation, the plate was washed three times (wash buffer from KPL Inc.) and Sure Blue Reserve HRP Substrate was added. […] The plate was then shaken gently for 5 seconds and the absorbance at 450 mn read on a Tecan Plate reader. Absorbance from each sample were compared to standard curve of purified recombinant human SOD-1 assayed on the same ELISA plate, and SOD-1 immunoreactivity (ng/ml) was estimated by comparison with the standard curve. […] The total protein of the lysates was determined by Bradford assay as described in Example 1 (iv). […]
# HeLa cells = test: Bradford total protein assay of HeLa lysates (check for cytotoxic effects); assay type: cell-based, human; settings: 72 hours
# Experimental: To determine if decrements found in the SOD-1 assay were simply the result of cytotoxic effects of the drug treatment, total protein was determined for each well. While the ELISA incubation was ongoing, 10 μl of the remaining lysate was removed from each well and placed into another empty plate, and BioRad Bradford reagent (100 μl) was added to the protein. After a 15 min incubation at room temperature the plate was shaken gently for 5 seconds and the absorbance was read at 595 nm in a Tecan Sunrise plate reader. Protein concentrations in each well were thus determined by comparison with protein standards that were run on the same plate.
# Following 72 hours of incubation with the drugs, the cells were photographed and processed as described in Example 1 (iii). The total protein of the lysates was determined by Bradford assay as described in Example 1 (iv). […] This reduction was dose related and maximal by 3 μM, with an IC50 of 2 μM.
# SOD-1 mRNA = SOD-1 mRNA by RT-PCR in blood of the SOD-93A murine model for ALS; assay type: in vivo; settings: SOD-93A mice, ip 1 or 10 mg/kg for 14 days, lymphocyte/blood samples, p<0.05, FIG. 2
# Experimental: The effects of the estrogen receptor modulating agent (e.g., Estradiol), and analogs thereof described in Examples 2 were tested in vivo in the SOD-93A murine model for ALS, and a reduction in SOD-1 levels was measured. The inhibition of RNA expression was monitored by isolated blood samples from a mouse pre- and post introduction of the compound (estradiol benzoate) using standard RT-PCR techniques. The expression of the SOD-1 protein was determined using Western blot techniques with an anti-SOD-1 antibody from Sigma. […] The results are shown as a % of internal control, 18S rRNA.
smiles,measurement,setting,value
C[C@]12CC[C@@H]3c4ccc(O)cc4CC[C@H]3[C@@H]1CC[C@@H]2O [Estradiol],concentration at which reduction of SOD-1 protein is maximal,"SOD-1 protein; 72 hours, dose related",≤ 3 µM
same,IC50,"SOD-1 protein; drug added to culture medium 72 hours before harvest, read-out: IC50 of reduction of SOD-1 protein levels",2000 nM
same,total protein levels,HeLa cells,unaffected
C[C@]12CC[C@@H]3c4ccc(OC(=O)c5ccccc5)cc4CC[C@H]3[C@@H]1CC[C@@H]2O [estradiol benzoate],"SOD-1 mRNA (% of internal control, 18S rRNA)",SOD-1 mRNA,decreased
CCCCC(=O)O[C@H]1CC[C@H]2[C@@H]3CCc4cc(O)ccc4[C@H]3CC[C@]12C [estradiol valerate],levels of SOD-1 protein,"SOD-1 protein; 72 hours, FIG. 1",reduction
